Laboratory results taken from ChEMBL document CHEMBL3112495, “Diphenylpyridylethanamine (DPPE)-based aminoheterocycles as cholesteryl ester transfer protein inhibitors” (Bioorg Med Chem Lett, 2014).

Tests used:
[1] = molecular target: T1, Cholesteryl ester transfer protein (Homo sapiens, UniProt P11597); test: Inhibition of human recombinant CETP using [3H]-CE/HDL by scintillation proximity assay
T1 sequence (P11597 whole entry): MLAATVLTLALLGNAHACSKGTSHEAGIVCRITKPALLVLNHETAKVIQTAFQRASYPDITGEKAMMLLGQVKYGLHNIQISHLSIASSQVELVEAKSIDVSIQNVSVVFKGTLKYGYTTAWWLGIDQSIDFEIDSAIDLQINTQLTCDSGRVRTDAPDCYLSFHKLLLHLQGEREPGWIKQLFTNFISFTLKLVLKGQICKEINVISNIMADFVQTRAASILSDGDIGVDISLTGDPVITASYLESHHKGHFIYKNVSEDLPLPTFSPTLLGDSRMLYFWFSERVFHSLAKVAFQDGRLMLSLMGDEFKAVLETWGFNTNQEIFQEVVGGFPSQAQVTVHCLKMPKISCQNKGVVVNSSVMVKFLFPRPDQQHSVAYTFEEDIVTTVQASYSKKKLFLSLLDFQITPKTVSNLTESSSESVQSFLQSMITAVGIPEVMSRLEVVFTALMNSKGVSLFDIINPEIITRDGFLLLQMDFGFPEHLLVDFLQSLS

[2] = molecular target: T1, Cholesteryl ester transfer protein; test: Inhibition of CETP in human whole plasma using [3H]-CE/HDL after 10 mins

Row | SMILES | IC50 [1] [nM] | IC50 [2] [nM]
1 | COC(=O)c1sc(NC(Cc2ccccc2)(c2cc(F)cc(C(F)(F)F)c2)c2ccc(Cl)cn2)nc1C (stereo not drawn) | 32000 | 
2 | Fc1cc(C(F)(F)F)cc(C(Cc2ccccc2)(Nc2nc(C(F)(F)F)c(Br)s2)c2ccc(Cl)cn2)c1 (stereo not drawn) | 100 | 
3 | Fc1cc(C(F)(F)F)cc(C(Cc2ccccc2)(Nc2nc(C(F)(F)F)cs2)c2ccc(Cl)cn2)c1 (stereo not drawn) | 1200 | 
4 | CC(C)(C)c1csc(NC(Cc2ccccc2)(c2cc(F)cc(C(F)(F)F)c2)c2ccc(Cl)cn2)n1 (stereo not drawn) | 7500 | 
5 | CCc1csc(NC(Cc2ccccc2)(c2cc(F)cc(C(F)(F)F)c2)c2ccc(Cl)cn2)n1 (stereo not drawn) | 700 | 
6 | Cc1cnc(NC(Cc2ccccc2)(c2cc(F)cc(C(F)(F)F)c2)c2ccc(Cl)cn2)s1 (stereo not drawn) | 1100 | 
7 | Cn1nnc(NC(Cc2ccccc2)(c2cc(F)cc(C(F)(F)F)c2)c2ccc(Cl)cn2)n1 (stereo not drawn) | 11000 | 
8 | Fc1cc(C(F)(F)F)cc(C(Cc2ccccc2)(Nc2nc3ccccc3s2)c2ccc(Cl)cn2)c1 (stereo not drawn) | 500 | 23000
9 | Fc1cc(C(F)(F)F)cc(C(Cc2ccccc2)(Nc2nc3ccccc3o2)c2ccc(Cl)cn2)c1 (stereo not drawn) | 2000 | 
10 | Fc1cc(C(F)(F)F)cc(C(Cc2ccccc2)(Nc2nc3ccccc3[nH]2)c2ccc(Cl)cn2)c1 (stereo not drawn) | 200 | 19600
11 | Fc1cc(C(F)(F)F)cc(C(Cc2ccccc2)(Nc2nnc(-c3ccccc3)[nH]2)c2ccc(Cl)cn2)c1 (stereo not drawn) | > 32000 | 
12 | Fc1cc(C(F)(F)F)cc(C(Cc2ccccc2)(Nc2ncc(-c3ccccc3)o2)c2ccc(Cl)cn2)c1 (stereo not drawn) | 12000 | 
13 | Fc1cc(C(F)(F)F)cc(C(Cc2ccccc2)(Nc2nc3c(s2)CCCC3)c2ccc(Cl)cn2)c1 (racemic) | 200 | 20200
14 | Cc1nc(NC(Cc2ccccc2)(c2cc(F)cc(C(F)(F)F)c2)c2ccc(Cl)cn2)sc1C (racemic) | 400 | 29500
